# Experimental data published in patent publication US6642003B2, “Human glucose-dependent insulin-secreting cell line” (Cedars-Sinai Medical Center, priority 2001, dated 2003).
# Experiments:
# [1] = tested on: PANC-1/IDX-1 cells; assay: Flow cytometric (FACS) analysis for insulin, PANC-1/IDX-1 cells; assay type: cell-based, human; conditions: GLP-1 10 nM, 72 h
# Method: (§1) PANC-1 cells were transfected with a pcDNA3 construct (Invitrogen; Carlsbad, Calif.) harboring the wild-type full-length IDX-1 cDNA using LipoTAXI (Catalog N. 204110; Mammalian Transfection Kit, Stratagene; La Jolla, Calif.). Control cells were transfected with the vector alone. The selection of positive (i.e. transfected) cells was carried out by culturing the cells in the presence of 400 μg/ml of G418 sulfate (GN-04, Omega; Tarzana, Calif.).
# For fluorescence-activated cells sorting (FACS) analysis, cells were cultured in the presence of GLP-1 (10 nM), or vehicle, for 72 h, then washed with cold PBS (pH 7.4; three times) and incubated overnight, on ice, in PBS with 2% paraformaldehyde. After centrifugation, the cell pellet was resuspended in 400 μl of cold 0.1% Triton diluted in FACS buffer (PBS with 2% FCS). After several centrifugation and washes, the cells were resuspended in the assay buffer with of 10 μl of fluorescent-conjugated insulin antibody (Cat N. FM205, FITC: Chromaprobe, Inc; Mountain View, Calif.), in the presence of 10 μl of blocking antibody (anti-mouse IgG; Organon Teknika-Cappel, West Chester, Pa.). […] Flow cytometric analysis was performed with a FACScan[R] cytometer, using the LYSYS II program, and by fluorescence microscopy, as is well known in the art. […]
# [2] = tested on: ARIP cells; assay: Flow cytometric (FACS) analysis for insulin, ARIP cells; assay type: cell-based, rat; conditions: GLP-1 10 nM, 72 hours
# Method: For fluorescence-activated cells sorting (FACS) analysis, cells were cultured in the presence of GLP-1 (10 nM), or vehicle, for 72 h, then washed with cold PBS (pH 7.4; three times) and incubated overnight, on ice, in PBS with 2% paraformaldehyde. After centrifugation, the cell pellet was resuspended in 400 μl of cold 0.1% Triton diluted in FACS buffer (PBS with 2% FCS). After several centrifugation and washes, the cells were resuspended in the assay buffer with of 10 μl of fluorescent-conjugated insulin antibody (Cat N. FM205, FITC: Chromaprobe, Inc; Mountain View, Calif.), in the presence of 10 μl of blocking antibody (anti-mouse IgG; Organon Teknika-Cappel, West Chester, Pa.). Control samples were treated with PBS, without the primary antibody, and then incubated with an […] FITC-conjugated control antibody (murine IgG; Chromaprobe Inc., Mountain View, Calif.). Flow cytometric analysis was performed with a FACScan[R] cytometer, using the LYSYS II program, and by fluorescence microscopy, as is well known in the art. See, e.g., E. Elstner, M. Linker-Israeli, J. Le, T. Umiel, P. Michl, J. W. Said, L. Binderup, J. C. […]
# [3] = tested on: PANC-1 cells; assay: Insulin release into culture medium (RIA), parental PANC-1 cells; assay type: cell-based, human
# Method: Rat (ARIP) and human (PANC-1) ductal cell lines were respectively a gift from Dr. J. M. Egan (National Institute on Aging, Baltimore, Md.) or purchased from ATCC (American Type Culture Collection; Manassas, Va.). ARIP cells were cultured in F12 medium (Gibco-BRL, Gaithersburg; Md.) containing 100 μg/ml penicillin, 50 μg/ml streptomycin and 10% fetal calf serum (FCS; Gibco-BRL) at 37° C. under a humidified condition of 95% air and 5% CO2. PANC-1 cells were cultured in DMEM medium supplemented with antibiotics and FCS, as indicated for F12 medium. […]
# PANC-1 (parental, IDX-1-transfected, and neomycin-transfected) cells and ARIP (only parental) cells were plated at density of 10^6 cells/well in a 6 well plate. […] Glucose-dependent insulin secretion was evaluated by culturing the cells in the presence of a determined concentration of GLP-1 (10 nM for 72 h) with increasing concentration of glucose in the culture medium ([…]). Insulin released into the medium was measured by RIA (Linco Research Inc.; St. Charles, Mass.). […]
# Total cellular protein content was measured by utilizing the Bradford method (Bio-Rad; Richmond, Calif.). The amount of proteins measured was used as a correction factor for determining the relative amount of medium to be assayed for each individual RIA for insulin.
# [4] = tested on: PANC-1/IDX-1 cells; assay: Immunocytochemistry and immunofluorescence for insulin, PANC-1/IDX-1 cells; assay type: cell-based, human; conditions: GLP-1 10 nM, 72 h
# Method: as §1
# (§2) Cells were cultured on monocoated chamber slides (Nalge Nunc International; Naperville, Ill.) in the presence of GLP-1 (10 nM), or vehicle, for 72 h.
# (§3) For the detection of insulin, cells were washed and fixed with 3% paraformaldehyde for 4 h, at room temperature in PBS, solubilized with 0.1% (vol/vol) Triton X-100 in PBS for 5 min. Cells were then incubated sequentially with an anti-insulin antibody and a secondary antibody, as described by the manufacturer (Biomeda Corp.; Foster City, Calif.). The cells were examined using a Ziess Axiophoto microscope (New York, N.Y.).
# Insulin immunofluoresce, for co-immunostaining with IDX-1, was carried on using the […], while the secondary antibody was a goat anti-guinea pig IgG (Molecular Probes, Inc.). The cells were examined using a using a fluorescent microscope (E-800; Nikon, Tokyo).
# [5] = tested on: ARIP cells; assay: Immunocytochemistry for insulin, ARIP cells; assay type: cell-based, rat; conditions: GLP-1 10 nM, 72 h
# Method: as §2, §3
substance,measurement,setting,value
glucagon-like peptide-1 [GLP-1],cultured cells converted from insulin negative to insulin positive,[1],61.7%
same,cells reacting with anti-human insulin antibody,[2],72.6%
same,insulin secretion in response to GLP-1,"[3]; parental PANC-1, 12 mM glucose, various GLP-1 concentrations",did not secrete insulin
same,insulin secretory response with increasing glucose,"[3]; wild-type PANC-1, GLP-1 10 nM for 72 h, data not shown",No insulin secretory response
same,insulin immunostaining,[4],capable of synthesizing insulin
same,IDX-1 containing cells also positive for intracellular insulin,[4]; double immunofluorescence,Approximately 85%
same,weakly IDX-1 positive cells not stained by anti-insulin antibody,[4]; double immunofluorescence,~20%
same,insulin immunostaining,[5],positive immunoreactivity for insulin
